Test results as given in patent US20210379026A1, “METHODS FOR TREATING OR PREVENTING SKIN CONDITIONS” (Drexel University, priority 2018, published 2021).
“Also recorded” adds a separate entry of the source.

Tests used:
p16 = assay: Nuclear p16 immunohistochemistry of human skin biopsies after topical treatment; type: in vivo; settings: formulation of 1 micromolar rapamycin, 0.5 cc daily, 240 days, vs vehicle control; FIG. 1
Experimental: Human skin was treated with a formulation of 1 micromolar rapamycin or an identical formulation containing a vehicle control for 240 days. 0.5 cc of the formulation was applied daily. Skin biopsies (N=8) were processed for immunohistochemistry and nuclear p16 was quantified using the Leica Aperio software system.

human skin [1] = assay: Histology (Hematoxylin Eosin stain) of dorsal hand skin biopsies after topical cream; type: in vivo; settings: topical cream 10 μM vs placebo
Experimental: (§1) Patients were provided with a proprietary topical formulation of rapamycin (0.001%; equivalent to 10 μM) or a placebo formulation that is identical with the exception that rapamycin was not included. For seborrheic keratosis, patients were instructed to apply the formulation to a localized area of the skin up to 1 cm around the lesion, in the evening before bed. Patients were instructed to apply the cream to the dorsal side of the hand once a day, in the evening before bed.
(§2) The cream included the following ingredients: Polyoxyethylene (40) stearate, Polyoxyethylene (20) sorbitan monooleate, glycerol monostearate, paraffin, cetyl alcohol, mineral oil, water, propylene glycol, sorbitol, glycerol, methylparaben.
(§3) Patients were provided with a 4 week supply of creams labeled by a number with no indication of whether they contained rapamycin. Patients were instructed to contact the study personnel if any irritation or negative reaction occurred at any time.
Hematoxylin Eosin stain of human skin biopsies from the dorsal hand of a patient following the application of a topical cream either containing rapamycin (10 μM) or placebo are shown in FIG. 2. Histologic evidence of actinic (solar) elastoses is indicated with an arrow.
40× magnified images of human skin biopsies from the dorsal hand of a patient following the application of a topical cream either containing rapamycin (10 μM) or placebo are shown in FIG. 3.
40× magnified images of human skin biopsies from the dorsal hand of a patient following the application of a topical cream either containing rapamycin (10 μM) or placebo are shown in FIG. 4.

cytokeratin 5/6 = assay: Cytokeratin 5/6 staining of dorsal hand skin biopsies after topical cream; type: in vivo, human; settings: topical cream 10 μM vs placebo, dorsal hand biopsy; FIG. 5 and FIG. 6 (40×)
Experimental: as §1, §2
Human skin biopsies from the dorsal hand of a patient following the application of a topical cream either containing rapamycin (10 μM) or placebo were stained with antibodies recognizing cytokeratin 5/6 (brown staining), which is a marker for basal cells in the epidermis.

human skin [2] = assay: Clinical appearance of the hand after rapamycin cream versus placebo-treated hand; type: in vivo; settings: 10 μM (0.001%) cream, 6 months, person, placebo on left hand; FIG. 7
Experimental: as §1, §2, §3
Placebo treated left hand is provided for comparison.

purpura = assay: Recurrent purpura in a patient under topical treatment; type: in vivo, human; settings: 0.001%, 4.5 months, one person with recurrent purpura; FIG. 8
Experimental: as §1
A person was treated with rapamycin (0.001%) for 4.5 months. The patient was a cancer survivor, multiple round of chemotherapy, recurrent purpura with subsequent scarring. […] Treatment was discontinued at end of trial.

human cells = assay: Protection of cultured cells from UV-induced cell death; type: cell-based
Experimental: Cells grown in the presence or absence of 1 nM rapamycin were exposed to increasing amounts of UV radiation and cell numbers were determined following 24 hours. […] In FIG. 9B, a representative photograph of the control culture 24 hours following UV is presented. Note the typical hallmarks of apoptosis including rounded floating cells and typical cell blebbing.

[3] = dorsal hand biopsy, 40× images, FIG. 4

CO[C@H]1C[C@@H]2CC[C@@H](C)[C@@](O)(O2)C(=O)C(=O)N2CCCC[C@H]2C(=O)O[C@H]([C@H](C)C[C@@H]2CC[C@@H](O)[C@H](OC)C2)CC(=O)[C@H](C)/C=C(\C)[C@@H](O)[C@@H](OC)C(=O)[C@H](C)C[C@H](C)/C=C/C=C/C=C/1C [rapamycin]
p16 levels in human skin (nuclear p16, immunohistochemistry) (p16): reduced the p16 levels in human skin
histological markers of aged/damaged skin (actinic (solar) elastoses) (human skin [1]; dorsal hand biopsies, multiple patients, FIG. 2): a reduction in the presence of these histological markers of aged/damaged skin
arrangement of the epithelial layer (human skin [1]; dorsal hand biopsy, 40× images, FIG. 3): more orderly arrangement of the epithelial layer
arrangement of collagen fibers (human skin [1]; [3]): more orderly arrangement of collagen fibers
solar elastoses (human skin [1]; [3]): fewer solar elastoses
location of cytokeratin 5/6 (CK 5/6) staining in the epidermis (cytokeratin 5/6): more focally located in the basal layer of the skin; also recorded: remained restricted to the basal layer
clinical improvement of the hand (human skin [2]): clinical improvement
purpura (purpura): significant reduction in purpura
cell death following UV irradiation (percent cell loss) (human cells; 1 nM rapamycin, increasing amounts of UV radiation, cell numbers after 24 hours, P=0.0044, FIG. 9A): reduction in cell death
apoptotic cells in culture after UV (human cells; culture grown in 1 nM rapamycin, 24 hours following UV, FIG. 9C): notable lack of apoptotic cells
